For this assay, the system named is human PBMCs. In words: 5-day MLR with Et-18-OCH3, BAPTA-AM or 8-bromo-cAMP preincubation, analogues present throughout. The format is cell-based. As to conditions: 2 μM; 1 hour preincubation with the inhibitors. The method, then:
To determine whether the effect of inhibition of AD2900 on PBMC proliferation is dependent on the same signal transduction pathways, we next examined the capacities of the intracellular Ca^2+ chelator-BAPTA-AM, phosphatidylinositol-specific PLC inhibitor-Et-18-OCH3, and cell-permeate exogenous cAMP-8-bromo-cAMP to alter the suppressive effect of AD2900 and FTY720 on PBMC proliferation. S1P served as a positive control (Figures 2A, 2B, and 2C, respectively). PBMCs were pre-incubated for 1 hour with the inhibitors before the addition of 2 μM AD2900, FTY720, or S1P in the MLR experiment. The inhibitors and the analogues were present in the culture throughout the allogeneic activation. AD2900 suppression of PBMC proliferation was reduced from 59% ± 3% to 32% ± 7% by the exogenous cAMP. BAPTA-AM also partially reversed AD2900 suppression of PBMC proliferation from 59% ± 3% to 32% ± 3%, yet Et-18-OCH3 had no effect (Figure 2A).
Figure 2 Effect of AD2900 on proliferation is dependent on cAMP reduction and calcium signal transduction The effect of Edelfosine (Et-18-OCH3) (Et), BAPTA-AM (BAPTA), or 8-bromo-cAMP (8-b-CAMP) on the inhibition of PBMC proliferation was tested in a 5-day MLR experiment. The cells were incubated with 1 μM Edelfosine, 0.2 μM BAPTA-AM, or 5 μM 8-bromo-cAMP for 1 hour before the addition of sphingolipid analogues, 2 μM AD2900 (AD) (A), FTY720 (FTY) (B), or S1P (C). Significances are compared to AD2900/FTY/S1P without preincubation, respectively. Graphs summarize the results of at least four independent experiments. Results of Student’s t-test: *(P < 0.05, two-tailed test), ** (P < 0.01, two-tailed test).
Human PBLs were collected from human whole blood collected from healthy donors. Subsequently, the cells were centrifuged on a Ficoll-Paque gradient (Fresenius Kabi Norge AS, Oslo, Norway) and were isolated from the interphase layer. For the human MLR experiment, PBMCs from one healthy donor were pretreated for 1 day with AD2900, AD2730, AD2750, YZ297, YZ158, FTY720, or SEW2871. After 24 h, cells were washed and plated at a concentration of 5 × 10^4 cells/well in round bottom 96-well plates containing RPMI-1640 medium Supplemented with 10% human AB serum, 1% penicillin/streptomycin, and 1% l-glutamine (Beit Haemek, Israel). PBMCs from a second donor were irradiated at 3000 γ dosage and added to the plate in a 1:1 ratio with the first donor cells. The cells were cultured for 5 days. For the thymidine incorporation assay, after 4 days of co-culture, cells were pulsed with ^3H-thymidine at 1 μCi (0.037MBq) per well (PerkinElmer, MA, USA) for 16 additional hours and then harvested onto glass-fiber filters. ^3H-thymidine incorporation was measured using Top Count. NXT (PerkinElmer, UK). In other experiments, the supernatant was harvested after 5 days of co-culture for IFN-γ and TNF-α cytokine ELISA measurements (eBioscience, CA, USA). The cells were then collected for assessing apoptosis by FACS in MACSQuant analyzer (Miltenyi Biotech, Germany). In another set of experiments, the PBMCs of two donors were mixed. Sphingolipid analogues were then added to the culture and sustained through the 5 days of the MLR experiment.

`CCCCCCCCCCCCC/C=C/[C@@H](O)[C@@H](N)COP(=O)(O)O` [S1P, Sphingosine-1-phosphate]: the “effect of Et-18-OCH3, BAPTA-AM and 8-bromo-cAMP on suppression of PBMC proliferation” value is given as “reversed by all three inhibitors”.

Source of the values: PMC5581131, “The novel sphingosine-1-phosphate receptors antagonist AD2900 affects lymphocyte activation and inhibits T-cell entry into the lymph nodes” (Oncotarget, 2017).
